Measurements reported in ChEMBL document CHEMBL5500392, “Functional and Structural Characterization of Clinical-Stage Janus Kinase 2 Inhibitors Identifies Determinants for Drug Selectivity” (J Med Chem, 2024).
Calls of active or inactive are those of the source. The rule behind the calls is not given here.

Legend:
[1] = target: T1, Tyrosine-protein kinase JAK2 (Homo sapiens, UniProt O60674); details: dose 30-200 µM
[2] = target: T1, Tyrosine-protein kinase JAK2; details: dose 30-200 µM; remark: listed apart in the source
[3] = target: T2, Non-receptor tyrosine-protein kinase TYK2 (Homo sapiens, UniProt P29597); assay: Binding affinity to recombinant human TYK2 JH2 (564 to 876-His residues) pseudokinase domain by fluorescence polarization assay
[4] = target: T1, Tyrosine-protein kinase JAK2; details: dose 30-200 µM; remark: listed apart in the source
BaF3 [5] = assay: Cytotoxicity against IL-3 dependent humanized mouse BaF3 cells expressing human JAK2 V617F mutant assessed as inhibition of cell growth incubated for 48 hrs by alamarBlue assay; type: functional, cell-based
BaF3 [6] = assay: Cytotoxicity against IL-3 dependent humanized mouse BaF3 cells expressing wild type human JAK2 assessed as inhibition of cell growth incubated for 48 hrs by alamarBlue assay; type: functional, cell-based
[7] = target: T3, Tyrosine-protein kinase JAK1 (Homo sapiens, UniProt P23458); assay: Binding affinity to recombinant human JAK1 JH2 (553 to 856-His residues) pseudokinase domain by fluorescence polarization assay
[8] = target: T3, Tyrosine-protein kinase JAK1; assay: Inhibition of recombinant human JAK1 assessed as inhibition of substrate phosphorylation measured every 5 mins for 30 mins by LANCE Ultra kinase assay
[9] = target: T3, Tyrosine-protein kinase JAK1; assay: Binding affinity to recombinant human JAK1 kinase domain by fluorescence polarization assay
[10] = target: T2, Non-receptor tyrosine-protein kinase TYK2; assay: Binding affinity to recombinant human TYK2 kinase domain by fluorescence polarization assay
[11] = target: T2, Non-receptor tyrosine-protein kinase TYK2; assay: Inhibition of recombinant human TYK2 assessed as inhibition of substrate phosphorylation measured every 5 mins for 30 mins by LANCE Ultra kinase assay
[12] = target: T1, Tyrosine-protein kinase JAK2; assay: Binding affinity to recombinant human JAK2 kinase domain (840 to 1132 residues) assessed as dissociation constant by ITC analysis
[13] = target: T1, Tyrosine-protein kinase JAK2; assay: Inhibition of recombinant human JAK2 assessed as inhibition of substrate phosphorylation measured every 5 mins for 30 mins by LANCE Ultra kinase assay
[14] = target: T1, Tyrosine-protein kinase JAK2; assay: Inhibition of JAK2-mediated erythropoietin-induced STAT5 phosphorylation in human TF-1 cells pretreated for 60 mins followed by erythropoietin addition and measured after 15 mins by pacific orange/pacific blue NHS esters based Beckmann coulter flow cytometer; type: cell-based
[15] = target: T1, Tyrosine-protein kinase JAK2; assay: Binding affinity to recombinant human JAK2 kinase domain by fluorescence polarization assay
[16] = target: T1, Tyrosine-protein kinase JAK2; assay: Binding affinity to recombinant human JAK2 kinase domain (840 to 1132 residues) assessed as change in entropy at 30 to 200 uM by fluorescence polarization measurement combined ITC analysis; details: dose 30-200 µM
Homo sapiens [17] = species: Homo sapiens; assay: Selectivity index, ratio of IC50 for inhibition of JAK1/JAK3-mediated IL-2 induced STAT5 phosphorylation in human whole blood CD4+ T cells to IC50 for inhibition of JAK1/TYK2-mediated IFN-alpha induced STAT1 phosphorylation in whole blood CD33-positive monocytes; type: cell-based
Homo sapiens [18] = species: Homo sapiens; assay: Selectivity index, ratio of IC50 for inhibition of JAK1-mediated IL-6 induced STAT3 phosphorylation in human whole blood CD33-positive monocytes to IC50 for inhibition of JAK1/TYK2-mediated IFN-alpha induced STAT1 phosphorylation in whole blood CD33-positive monocytes; type: cell-based
[19] = target: T4, Tyrosine-protein kinase JAK3 (Homo sapiens, UniProt P52333); assay: Inhibition of recombinant human JAK3 assessed as inhibition of substrate phosphorylation measured every 5 mins for 30 mins by LANCE Ultra kinase assay
T4 sequence (P52333 whole entry): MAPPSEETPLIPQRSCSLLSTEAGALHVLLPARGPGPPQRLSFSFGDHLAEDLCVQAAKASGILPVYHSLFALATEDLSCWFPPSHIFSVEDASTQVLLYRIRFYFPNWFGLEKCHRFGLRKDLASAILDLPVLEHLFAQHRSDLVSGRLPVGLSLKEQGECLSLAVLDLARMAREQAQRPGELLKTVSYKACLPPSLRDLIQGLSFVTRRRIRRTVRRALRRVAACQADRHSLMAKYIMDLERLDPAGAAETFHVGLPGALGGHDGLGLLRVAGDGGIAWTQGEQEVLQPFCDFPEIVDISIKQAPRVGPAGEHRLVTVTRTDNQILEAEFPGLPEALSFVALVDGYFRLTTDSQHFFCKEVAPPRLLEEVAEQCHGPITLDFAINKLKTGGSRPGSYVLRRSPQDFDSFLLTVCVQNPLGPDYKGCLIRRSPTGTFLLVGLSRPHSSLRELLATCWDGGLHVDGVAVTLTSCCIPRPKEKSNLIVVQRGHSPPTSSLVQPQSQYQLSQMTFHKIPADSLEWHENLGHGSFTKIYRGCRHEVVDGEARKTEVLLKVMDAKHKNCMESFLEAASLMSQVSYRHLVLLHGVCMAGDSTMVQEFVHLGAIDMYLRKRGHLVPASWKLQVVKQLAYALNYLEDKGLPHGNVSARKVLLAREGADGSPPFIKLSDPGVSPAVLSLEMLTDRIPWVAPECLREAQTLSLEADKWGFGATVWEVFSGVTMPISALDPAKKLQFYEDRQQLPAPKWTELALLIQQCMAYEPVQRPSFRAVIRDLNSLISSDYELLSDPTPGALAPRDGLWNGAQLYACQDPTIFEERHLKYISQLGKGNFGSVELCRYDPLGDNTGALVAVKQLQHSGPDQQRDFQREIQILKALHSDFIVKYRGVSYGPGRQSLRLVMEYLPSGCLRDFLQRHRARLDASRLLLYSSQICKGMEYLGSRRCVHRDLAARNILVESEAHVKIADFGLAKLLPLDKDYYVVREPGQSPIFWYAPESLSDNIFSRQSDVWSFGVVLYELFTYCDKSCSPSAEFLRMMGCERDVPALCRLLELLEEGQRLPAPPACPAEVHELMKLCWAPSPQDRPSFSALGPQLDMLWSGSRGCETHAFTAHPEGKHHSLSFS

[20] = target: T1, Tyrosine-protein kinase JAK2; assay: Binding affinity to recombinant human JAK2 kinase domain (840 to 1132 residues) assessed as change in enthalpy at 30 to 200 uM by fluorescence polarization measurement combined ITC analysis; details: dose 30-200 µM
[21] = target: T1, Tyrosine-protein kinase JAK2; assay: Binding affinity to recombinant human JAK2 kinase domain (840 to 1132 residues) assessed as gibbs free energy change at 30 to 200 uM by fluorescence polarization measurement combined ITC analysis; details: dose 30-200 µM
[22] = Selectivity index, ratio of IC50 for cytotoxicity against IL-3 dependent humanized mouse BaF3 cells expressing wild type human JAK2 to IC50 for cytotoxicity against IL-3 dependent humanized mouse BaF3 cells expressing human JAK2 V617F mutant; type: functional
Homo sapiens [23] = species: Homo sapiens; assay: Selectivity index, ratio of IC50 for inhibition of JAK1/JAK2-mediated IFNgamma-induced STAT1 phosphorylation in human whole blood CD33-positive monocytes to IC50 for inhibition of JAK1/TYK2-mediated IFN-alpha induced STAT1 phosphorylation in whole blood CD33-positive monocytes; type: cell-based
Homo sapiens [24] = species: Homo sapiens; assay: Selectivity index, ratio of IC50 for inhibition of JAK2-mediated GM-CSF-induced STAT5 phosphorylation in human whole blood CD33-positive monocytes to IC50 for inhibition of JAK1/TYK2-mediated IFN-alpha induced STAT1 phosphorylation in whole blood CD33-positive monocytes; type: cell-based
[25] = target: T4, Tyrosine-protein kinase JAK3; assay: Binding affinity to recombinant human JAK3 kinase domain by fluorescence polarization assay
[26] = target: T1, Tyrosine-protein kinase JAK2; assay: Binding affinity to recombinant human JAK2 kinase domain (840 to 1132 residues) assessed as dissociation constant by fluorescence polarization measurement combined ITC analysis
Homo sapiens [27] = species: Homo sapiens; assay: Selectivity index, ratio of IC50 for recombinant human JAK1 kinase domain to IC50 for recombinant human JAK2 kinase domain

T3 sequence (P23458 whole entry, the tested form may be a part): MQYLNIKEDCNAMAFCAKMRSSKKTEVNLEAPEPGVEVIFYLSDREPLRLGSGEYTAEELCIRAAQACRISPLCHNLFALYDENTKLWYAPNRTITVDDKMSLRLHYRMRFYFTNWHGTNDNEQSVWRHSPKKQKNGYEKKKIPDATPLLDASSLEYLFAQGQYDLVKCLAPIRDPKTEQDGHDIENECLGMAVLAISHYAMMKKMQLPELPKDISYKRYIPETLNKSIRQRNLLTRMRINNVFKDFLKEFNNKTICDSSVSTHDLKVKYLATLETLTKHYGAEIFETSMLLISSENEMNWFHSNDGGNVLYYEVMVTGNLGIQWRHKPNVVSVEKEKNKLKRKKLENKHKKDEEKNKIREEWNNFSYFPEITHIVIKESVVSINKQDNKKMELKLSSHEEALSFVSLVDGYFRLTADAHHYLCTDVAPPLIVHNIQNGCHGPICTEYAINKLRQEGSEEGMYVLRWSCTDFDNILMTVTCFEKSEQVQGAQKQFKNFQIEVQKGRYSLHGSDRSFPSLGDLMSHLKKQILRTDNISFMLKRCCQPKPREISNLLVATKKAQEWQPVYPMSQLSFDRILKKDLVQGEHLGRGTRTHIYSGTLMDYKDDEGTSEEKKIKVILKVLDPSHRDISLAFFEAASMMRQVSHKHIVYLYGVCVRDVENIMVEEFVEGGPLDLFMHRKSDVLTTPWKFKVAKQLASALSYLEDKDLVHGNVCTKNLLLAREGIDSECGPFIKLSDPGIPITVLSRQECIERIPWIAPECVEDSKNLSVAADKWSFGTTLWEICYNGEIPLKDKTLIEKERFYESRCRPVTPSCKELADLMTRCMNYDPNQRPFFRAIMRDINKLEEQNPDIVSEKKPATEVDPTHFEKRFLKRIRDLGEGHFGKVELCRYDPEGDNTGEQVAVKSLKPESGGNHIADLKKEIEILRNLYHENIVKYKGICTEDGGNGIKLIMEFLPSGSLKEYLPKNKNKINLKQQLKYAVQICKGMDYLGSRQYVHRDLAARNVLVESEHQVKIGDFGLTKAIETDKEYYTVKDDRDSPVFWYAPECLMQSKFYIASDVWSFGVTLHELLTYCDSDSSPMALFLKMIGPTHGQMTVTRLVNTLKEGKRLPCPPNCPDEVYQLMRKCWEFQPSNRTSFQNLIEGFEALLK
T1 sequence (O60674 whole entry): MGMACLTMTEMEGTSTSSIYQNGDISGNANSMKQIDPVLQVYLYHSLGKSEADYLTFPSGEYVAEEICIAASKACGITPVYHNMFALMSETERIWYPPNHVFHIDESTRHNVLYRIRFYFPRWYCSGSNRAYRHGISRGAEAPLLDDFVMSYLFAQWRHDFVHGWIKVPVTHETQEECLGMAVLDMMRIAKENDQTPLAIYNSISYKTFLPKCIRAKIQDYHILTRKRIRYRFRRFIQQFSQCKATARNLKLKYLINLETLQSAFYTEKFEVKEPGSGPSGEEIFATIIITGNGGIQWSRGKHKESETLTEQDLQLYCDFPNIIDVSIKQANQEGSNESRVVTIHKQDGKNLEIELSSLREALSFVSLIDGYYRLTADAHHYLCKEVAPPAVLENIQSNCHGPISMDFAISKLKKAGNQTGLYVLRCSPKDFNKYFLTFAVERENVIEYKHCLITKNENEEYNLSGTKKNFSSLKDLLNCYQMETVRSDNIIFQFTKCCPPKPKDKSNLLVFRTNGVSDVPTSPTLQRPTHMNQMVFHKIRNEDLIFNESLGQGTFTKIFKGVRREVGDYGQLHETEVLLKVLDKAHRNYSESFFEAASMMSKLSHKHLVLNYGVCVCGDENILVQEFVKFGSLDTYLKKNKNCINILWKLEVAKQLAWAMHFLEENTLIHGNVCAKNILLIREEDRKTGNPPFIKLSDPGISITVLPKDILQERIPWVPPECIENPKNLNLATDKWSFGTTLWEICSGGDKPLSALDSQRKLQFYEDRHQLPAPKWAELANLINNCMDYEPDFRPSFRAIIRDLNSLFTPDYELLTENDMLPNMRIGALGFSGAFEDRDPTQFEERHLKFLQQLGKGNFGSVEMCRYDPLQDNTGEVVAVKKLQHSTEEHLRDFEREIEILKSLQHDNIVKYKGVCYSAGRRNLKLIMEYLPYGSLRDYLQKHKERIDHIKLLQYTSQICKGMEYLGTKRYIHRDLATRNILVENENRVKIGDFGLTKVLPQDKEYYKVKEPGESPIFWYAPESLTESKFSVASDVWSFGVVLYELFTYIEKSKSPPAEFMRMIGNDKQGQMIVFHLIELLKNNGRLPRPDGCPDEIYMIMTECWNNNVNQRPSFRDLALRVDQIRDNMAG
T2 sequence (P29597 whole entry, the tested form may be a part): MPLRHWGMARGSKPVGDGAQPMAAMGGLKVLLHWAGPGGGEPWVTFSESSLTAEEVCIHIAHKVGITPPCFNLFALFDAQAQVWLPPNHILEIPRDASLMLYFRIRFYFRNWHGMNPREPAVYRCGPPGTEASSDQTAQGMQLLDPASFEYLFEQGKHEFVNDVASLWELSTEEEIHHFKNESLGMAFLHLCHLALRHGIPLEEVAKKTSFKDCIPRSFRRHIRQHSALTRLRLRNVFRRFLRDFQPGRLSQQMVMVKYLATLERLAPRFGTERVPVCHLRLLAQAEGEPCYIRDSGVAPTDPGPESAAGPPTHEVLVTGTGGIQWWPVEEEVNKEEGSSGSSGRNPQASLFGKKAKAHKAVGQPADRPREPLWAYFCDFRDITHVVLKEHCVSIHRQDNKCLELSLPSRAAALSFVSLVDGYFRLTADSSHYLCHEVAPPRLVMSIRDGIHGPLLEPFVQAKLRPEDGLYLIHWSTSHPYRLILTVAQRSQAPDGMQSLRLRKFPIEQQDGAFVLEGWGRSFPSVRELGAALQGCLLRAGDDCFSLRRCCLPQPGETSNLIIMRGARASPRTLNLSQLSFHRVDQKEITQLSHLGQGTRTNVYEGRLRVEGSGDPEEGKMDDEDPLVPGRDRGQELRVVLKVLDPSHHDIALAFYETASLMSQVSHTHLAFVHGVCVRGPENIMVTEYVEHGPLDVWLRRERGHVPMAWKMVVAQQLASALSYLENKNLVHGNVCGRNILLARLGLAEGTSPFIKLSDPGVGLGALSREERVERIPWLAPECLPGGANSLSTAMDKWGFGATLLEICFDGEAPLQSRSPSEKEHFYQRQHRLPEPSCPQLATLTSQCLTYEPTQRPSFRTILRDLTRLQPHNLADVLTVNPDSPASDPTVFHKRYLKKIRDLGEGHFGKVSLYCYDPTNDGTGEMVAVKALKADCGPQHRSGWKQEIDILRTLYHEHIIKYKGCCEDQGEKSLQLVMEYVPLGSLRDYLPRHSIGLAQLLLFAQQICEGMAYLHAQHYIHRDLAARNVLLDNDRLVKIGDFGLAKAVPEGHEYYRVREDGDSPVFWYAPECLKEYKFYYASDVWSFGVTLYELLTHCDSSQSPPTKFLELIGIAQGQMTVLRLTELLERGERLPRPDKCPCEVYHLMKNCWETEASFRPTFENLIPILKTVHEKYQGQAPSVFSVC

| -TdeltaS [1] [kcal/mol] | deltaG [2] [kcal/mol] | deltaH [4] [kcal/mol] | IC50 [8] [nM] | Kd [9] [nM] | Kd [10] [nM] | IC50 [11] [nM] | IC50 [13] [nM] | IC50 [14] [nM] | Kd [15] [nM] | SMILES | other results |
| --- | --- | --- | --- | --- | --- | --- | --- | --- | --- | --- | --- |
| -3.3 | -10.9 | -7.6 | – | – | – | – | – | – | – | C1=N/C2=N/c3ccc(OCCN4CCCC4)c(c3)COC/C=C/COCc3cccc(c3)C(=C1)N2 | Activity [3]: Active |
| – | – | – | – | – | – | – | – | – | – | C[C@]12O[C@H](C[C@]1(O)CO)n1c3ccccc3c3c4c(c5c6ccccc6n2c5c31)CNC4=O | Activity (BaF3 [5]): Active; Activity (BaF3 [6]): Active |
| 3.2 | -11.3 | -14.4 | – | – | – | – | – | – | – | N#CCNC(=O)c1ccc(-c2ccnc(Nc3ccc(N4CCOCC4)cc3)n2)cc1 | – |
| – | – | – | – | – | – | – | – | – | – | N#CC[C@H](C1CCCC1)n1cc(-c2ncnc3[nH]ccc23)cn1 | Activity (BaF3 [5]): Active; Activity (BaF3 [6]): Active |
| – | – | – | – | – | – | – | – | – | – | O=C(Nc1c[nH]nc1-c1nc2ccc(CN3CCOCC3)cc2[nH]1)NC1CC1 | Activity [3]: Active; Activity [7]: Active |
| – | – | – | 65 | 37 | – | – | – | – | – | O=C(Nc1c[nH]nc1-c1nc2cc(CN3CCOCC3)ccc2[nH]1)NC1CC1 [AT-9283] | – |
| -0.4 | -10.8 | -10.4 | 22 | 23 | 6.9 | 26 | 11 | 99 | 4.8 | CCS(=O)(=O)N1CCN(c2ccc(Nc3ncc(C(N)=O)c(NC4CC4)n3)cc2)CC1 [CERDULATINIB] | Activity [3]: Active; Activity [7]: Active; Kd [12]: 8.9 nM |
| – | – | – | 7.3 | 8.2 | 16 | 92 | 6.2 | 155 | 11 | Cc1cc(Nc2cc(CN3CCOCC3)c3nc(C)c(Cc4ccc(Cl)cc4F)n3n2)n[nH]1 [GANDOTINIB] | -TdeltaS [16]: -6.6 kcal/mol; Ratio IC50 (Homo sapiens [17]): 1.1; Ratio IC50 (Homo sapiens [18]): 4; IC50 [19]: 199 nM; deltaH [20]: -4.1 kcal/mol; deltaG [21]: -10.7 kcal/mol; Ratio IC50 [22]: 1.5; Ratio IC50 (Homo sapiens [23]): 2.3; Ratio IC50 (Homo sapiens [24]): 7.5; Kd [25]: 13 nM; Kd [26]: 11 nM |
| -5.4 | -10.7 | -5.4 | 3.4 | 51 | 385 | 4100 | 54 | 488 | 26 | N#CCC1(n2cc(-c3ncnc4[nH]ccc34)cn2)CN(C2CCN(C(=O)c3ccnc(C(F)(F)F)c3F)CC2)C1 [ITACITINIB] | Kd [12]: 10.7 nM; Ratio IC50 (Homo sapiens [17]): 0.4; Ratio IC50 (Homo sapiens [18]): 1.2; IC50 [19]: 10800 nM; Ratio IC50 (Homo sapiens [23]): 0.8; Ratio IC50 (Homo sapiens [24]): 16.7; Kd [25]: 324 nM |
| 1.2 | -11.3 | -12.5 | 7.1 | 16 | 21 | 216 | 0.8 | 41 | 4.5 | C[C@H](Nc1cc(-c2cnn(C)c2)cc(Nc2cnccn2)n1)c1ccc(F)cc1 [NS-018] | Ratio IC50 (Homo sapiens [27]): 9; Kd [12]: 4 nM; Ratio IC50 (Homo sapiens [17]): 1.7; Ratio IC50 (Homo sapiens [18]): 2.8; IC50 [19]: 182 nM; Ratio IC50 (Homo sapiens [23]): 0.6; Ratio IC50 (Homo sapiens [24]): 5.8; Kd [25]: 19 nM |
| – | – | – | 371 | 318 | 125 | 536 | – | – | – | C1=C/COCc2cc(ccc2OCCN2CCCC2)Nc2nccc(n2)-c2cccc(c2)COC/1 [PACRITINIB] | – |
